Measured values published in ChEMBL document CHEMBL3046164, “A facile synthesis of some 3-cyano-1,4,6-trisubstituted-2(1H)-pyridinones and their biological evaluation as anticancer agents” (2011).
Where “and” joins values, the source holds several entries; their conditions need not be identical. Equal values may be shown once.

Columns and labels:
Format in all cases: functional
HOP-92 [1] = experiment: Growth inhibition of Homo sapiens (human) HOP92 cells at 10 uM after 48 hr by SRB assay; conditions: HOP-92, 48 h, read-out: GI
BT-549 [2] = experiment: Growth inhibition of Homo sapiens (human) BT549 cells at 10 uM after 48 hr by SRB assay; conditions: BT-549, 48 h, read-out: GI
SR [3] = experiment: Growth inhibition of Homo sapiens (human) SR cells at 10 uM after 48 hr by SRB assay; conditions: read-out: GI
NCI-H23 = experiment: Growth inhibition of Homo sapiens (human) NCI-H23 cells at 10 uM after 48 hr by SRB assay; conditions: NCI-H23, 48 h, read-out: GI
HL-60(TB) [4] = experiment: Growth inhibition of Homo sapiens (human) HL-60(TB) cells at 10 uM after 48 hr by SRB assay; conditions: HL-60, 48 h, read-out: GI
RPMI-8226 [5] = experiment: Growth inhibition of Homo sapiens (human) RPMI8226 cells at 10 uM after 48 hr by SRB assay; conditions: RPMI-8226, 48 h, read-out: GI
K562 = experiment: Growth inhibition of Homo sapiens (human) K562 cells at 10 uM after 48 hr by SRB assay; conditions: K562, 48 h, read-out: GI
MOLT-4 = experiment: Growth inhibition of Homo sapiens (human) MOLT4 cells at 10 uM after 48 hr by SRB assay; conditions: MOLT-4, 48 h, read-out: GI
CCRF-CEM [6] = experiment: Growth inhibition of Homo sapiens (human) CCRF-CEM cells at 10 uM after 48 hr by SRB assay; conditions: read-out: GI
PC-3 = experiment: Growth inhibition of Homo sapiens (human) PC3 cells at 10 uM after 48 hr by SRB assay; conditions: PC-3, 48 h, read-out: GI
HL-60(TB) [7] = experiment: Cytotoxicity against Homo sapiens (human) HL-60(TB) cells after 48 hr by SRB assay; conditions: HL-60, 48 h
UACC-62 = experiment: Cytotoxicity against Homo sapiens (human) UACC62 cells after 48 hr by SRB assay; conditions: UACC-62, 48 h
OVCAR-4 = experiment: Cytotoxicity against Homo sapiens (human) OVCAR4 cells after 48 hr by SRB assay; conditions: OVCAR-4, 48 h
OVCAR-3 = experiment: Cytotoxicity against Homo sapiens (human) OVCAR3 cells after 48 hr by SRB assay; conditions: OVCAR-3, 48 h
IGROV-1 = experiment: Cytotoxicity against Homo sapiens (human) IGROV1 cells after 48 hr by SRB assay; conditions: IGROV-1, 48 h
EKVX = experiment: Cytotoxicity against Homo sapiens (human) EKVX cells after 48 hr by SRB assay
SR [8] = experiment: Cytotoxicity against Homo sapiens (human) SR cells after 48 hr by SRB assay
SNB-75 [9] = experiment: Growth inhibition of Homo sapiens (human) SNB75 cells at 10 uM after 48 hr by SRB assay; conditions: SNB-75, 48 h, read-out: GI
HCC 2998 = experiment: Cytotoxicity against Homo sapiens (human) HCC2998 cells after 48 hr by SRB assay; conditions: HCC 2998, 48 h
T47D [10] = experiment: Cytotoxicity against Homo sapiens (human) T47D cells after 48 hr by SRB assay
MCF7 = experiment: Growth inhibition of Homo sapiens (human) MCF7 cells at 10 uM after 48 hr by SRB assay; conditions: MCF7, 48 h, read-out: GI
SF-539 = experiment: Cytotoxicity against Homo sapiens (human) SF539 cells after 48 hr by SRB assay; conditions: SF-539, 48 h
HOP-62 = experiment: Cytotoxicity against Homo sapiens (human) HOP62 cells after 48 hr by SRB assay; conditions: HOP-62, 48 h
CCRF-CEM [11] = experiment: Cytotoxicity against Homo sapiens (human) CCRF-CEM cells after 48 hr by SRB assay
SNB-75 [12] = experiment: Cytotoxicity against Homo sapiens (human) SNB75 cells after 48 hr by SRB assay; conditions: SNB-75, 48 h
UO-31 = experiment: Cytotoxicity against Homo sapiens (human) UO31 cells after 48 hr by SRB assay; conditions: UO-31, 48 h
RPMI-8226 [13] = experiment: Cytotoxicity against Homo sapiens (human) RPMI8226 cells after 48 hr by SRB assay
BT-549 [14] = experiment: Cytotoxicity against Homo sapiens (human) BT549 cells after 48 hr by SRB assay; conditions: BT-549, 48 h
T47D [15] = experiment: Growth inhibition of Homo sapiens (human) T47D cells at 10 uM after 48 hr by SRB assay; conditions: read-out: GI
HOP-92 [16] = experiment: Cytotoxicity against Homo sapiens (human) HOP92 cells after 48 hr by SRB assay; conditions: HOP-92, 48 h
SF-268 = experiment: Cytotoxicity against Homo sapiens (human) SF268 cells after 48 hr by SRB assay; conditions: SF-268, 48 h
MDA-MB-231 = experiment: Cytotoxicity against Homo sapiens (human) MDA-MB-231 cells after 48 hr by SRB assay; conditions: MDA-MB-231, 48 h
A498 = experiment: Cytotoxicity against Homo sapiens (human) A498 cells after 48 hr by SRB assay; conditions: A498, 48 h

| SMILES | inhibition of growth at 10 µM (HOP-92 [1]) [%] | GI50 (HL-60(TB) [7]) [µM] | GI50 (UACC-62) [µM] | GI50 (OVCAR-4) [µM] | GI50 (OVCAR-3) [µM] | GI50 (IGROV-1) [µM] | GI50 (EKVX) [µM] | GI50 (SR [8]) [µM] | GI50 (HCC 2998) [µM] | GI50 (T47D [10]) [µM] | GI50 (SF-539) [µM] | GI50 (HOP-62) [µM] | GI50 (CCRF-CEM [11]) [µM] | GI50 (SNB-75 [12]) [µM] | GI50 (UO-31) [µM] | GI50 (BT-549 [14]) [µM] | GI50 (HOP-92 [16]) [µM] | GI50 (SF-268) [µM] | GI50 (MDA-MB-231) [µM] | GI50 (A498) [µM] | further results |
| --- | --- | --- | --- | --- | --- | --- | --- | --- | --- | --- | --- | --- | --- | --- | --- | --- | --- | --- | --- | --- | --- |
| COc1ccc(-c2cc(-c3cccn3C)c(C#N)c(=O)n2S(=O)(=O)c2ccccc2)cc1OC | 25.8 | – | – | – | – | – | – | – | – | – | – | – | – | – | – | – | – | – | – | – | inhibition of growth at 10 µM (BT-549 [2]): 21%; inhibition of growth at 10 µM (SR [3]): 31.4% |
| COc1ccc(-c2cc(-c3cccs3)n(S(=O)(=O)c3ccccc3)c(=O)c2C#N)cc1 | 21.3 | – | – | – | – | – | – | – | – | – | – | – | – | – | – | – | – | – | – | – | inhibition of growth at 10 µM (NCI-H23): 20%; inhibition of growth at 10 µM (HL-60(TB) [4]): 55%; inhibition of growth at 10 µM (RPMI-8226 [5]): 22%; inhibition of growth at 10 µM (K562): 27.7%; inhibition of growth at 10 µM (MOLT-4): 28.1%; inhibition of growth at 10 µM (CCRF-CEM [6]): 56.2% |
| CC(=O)n1c(-c2ccc(Br)cc2)cc(-c2cccn2C)c(C#N)c1=O | 24.6 | – | – | – | – | – | – | – | – | – | – | – | – | – | – | – | – | – | – | – | – |
| COc1ccc(-c2cc(-c3cccn3C)c(C#N)c(=O)n2C(C)=O)cc1OC | – | – | – | – | – | – | – | – | – | – | – | – | – | – | – | – | – | – | – | – | inhibition of growth at 10 µM (K562): 25.3% |
| COc1ccc(-c2cc(-c3cccs3)n(C(C)=O)c(=O)c2C#N)cc1 | 29.6 | – | – | – | – | – | – | – | – | – | – | – | – | – | – | – | – | – | – | – | inhibition of growth at 10 µM (SR [3]): 30.5% |
| Cc1nnc2c(C#N)c(-c3cccn3C)cc(-c3ccc(Br)cc3)n12 | 30 | – | – | – | – | – | – | – | – | – | – | – | – | – | – | – | – | – | – | – | inhibition of growth at 10 µM (RPMI-8226 [5]): 43.2%; inhibition of growth at 10 µM (CCRF-CEM [6]): 66%; inhibition of growth at 10 µM (PC-3): 24% |
| COc1ccc(-c2cc(-c3cccn3C)c(C#N)c3nnc(C)n23)cc1OC | 48 | > 100 | 95.5 | > 100 | > 100 | > 100 | 0.01 | > 100 | > 100 | > 100 | > 100 | 37.1 | > 100 | 44.7 | > 100 | > 100 | > 100 | > 100 | > 100 | 25.7 | TGI (EKVX): 0.03 µM; inhibition of growth at 10 µM (SNB-75 [9]): 25.8%; inhibition of growth at 10 µM (MCF7): 29%; inhibition of growth at 10 µM (K562): 41.5%; GI50 (RPMI-8226 [13]): 45.7 µM and 19 µM; inhibition of growth at 10 µM (CCRF-CEM [6]): 39.2%; inhibition of growth at 10 µM (T47D [15]): 34.3%; inhibition of growth at 10 µM (PC-3): 23.8% |
| COc1ccc(-c2cc(-c3cccs3)n3c(C)nnc3c2C#N)cc1 | 23.5 | – | – | – | – | – | – | – | – | – | – | – | – | – | – | – | – | – | – | – | – |
| Cn1cccc1-c1cc(-c2ccc(Br)cc2)[nH]c(=O)c1C#N | – | > 100 | 48.9 | > 100 | 85.1 | 77.6 | 27.5 | > 100 | > 100 | > 100 | 89.1 | 34.7 | 47.3 | 25.7 | 69.2 | 85.1 | > 100 | > 100 | 83.2 | 54.9 | GI50 (RPMI-8226 [13]; Homo sapiens, RPMI-8226, 48 h): 57.5 µM |
| COc1ccc(-c2cc(-c3cccn3C)c(C#N)c(=O)[nH]2)cc1OC | – | > 100 | 66.1 | > 100 | > 100 | 91.2 | 0.05 | 0.48 | 89.1 | 34.7 | 67.6 | 30.9 | 5.01 | 23.9 | 85.1 | > 100 | > 100 | > 100 | > 100 | 56.2 | TGI (EKVX): 9.77 µM; GI50 (RPMI-8226 [13]; Homo sapiens, RPMI-8226, 48 h): 22.9 µM |
| COc1ccc(-c2cc(-c3cccs3)[nH]c(=O)c2C#N)cc1 | – | 45.7 | > 100 | 69.2 | > 100 | > 100 | > 100 | 60.2 | > 100 | > 100 | > 100 | > 100 | 23.4 | 39.8 | > 100 | > 100 | > 100 | > 100 | > 100 | > 100 | GI50 (RPMI-8226 [13]; Homo sapiens, RPMI-8226, 48 h): 22.4 µM |
